The target in experiment [1] is T1, human histamine H4 receptor (Homo sapiens, UniProt Q9H3N8).
T1 construct: purchased PerkinElmer Inc; host or cells: CHO-K1
The experiment in a line: Evaluation of Human H4 Receptor Affinity ([3H]histamine binding). Particulars: inhibition constant Ki, CHO-K1 membrane preparation, read-out: Evaluation of H4 Receptor Affinity. Summed up:
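Radioligand displacement: compound competes with 8.2 nM [3H]histamine at recombinant human H4 receptor in CHO-K1 membranes (Tris-HCl 50 mM pH 7.4, EDTA 1.25 mM; 25 °C, 90 min), with filter-bound radioactivity counted. IC50 was converted to Ki via Cheng-Prusoff (Kd 5.7 nM); 1.0 μM histamine set nonspecific binding.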

The target of experiment [2] is human histamine H1 receptor (Homo sapiens, UniProt P35367). The experiment in a line: Evaluation of Human H1 Receptor Affinity ([3H]pyrilamine binding). The conditions noted are these: inhibition constant Ki, CHO-K1 membrane preparation. Set-up: purchased PerkinElmer Inc; host or cells: CHO-K1. Summed up:
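Ki values are Cheng-Prusoff conversions of IC50 (Kd 1.1 nM) from radioligand displacement of 1.2 nM [3H]pyrilamine, with 1.0 μM pyrilamine defining nonspecific binding.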

Where a name gives a salt, the structure may show the parent alone.

T1 sequence (Q9H3N8 whole entry): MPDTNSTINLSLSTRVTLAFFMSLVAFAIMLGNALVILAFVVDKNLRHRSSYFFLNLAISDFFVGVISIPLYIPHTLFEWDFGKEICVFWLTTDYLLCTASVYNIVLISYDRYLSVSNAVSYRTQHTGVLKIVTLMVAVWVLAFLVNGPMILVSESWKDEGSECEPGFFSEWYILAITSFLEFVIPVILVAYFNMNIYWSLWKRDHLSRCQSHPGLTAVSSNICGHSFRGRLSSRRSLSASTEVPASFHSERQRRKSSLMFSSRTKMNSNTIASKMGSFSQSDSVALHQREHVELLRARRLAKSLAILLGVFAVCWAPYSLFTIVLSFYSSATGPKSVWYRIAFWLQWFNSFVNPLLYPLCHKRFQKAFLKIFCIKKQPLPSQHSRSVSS
human histamine H1 receptor, sequence (P35367 whole entry): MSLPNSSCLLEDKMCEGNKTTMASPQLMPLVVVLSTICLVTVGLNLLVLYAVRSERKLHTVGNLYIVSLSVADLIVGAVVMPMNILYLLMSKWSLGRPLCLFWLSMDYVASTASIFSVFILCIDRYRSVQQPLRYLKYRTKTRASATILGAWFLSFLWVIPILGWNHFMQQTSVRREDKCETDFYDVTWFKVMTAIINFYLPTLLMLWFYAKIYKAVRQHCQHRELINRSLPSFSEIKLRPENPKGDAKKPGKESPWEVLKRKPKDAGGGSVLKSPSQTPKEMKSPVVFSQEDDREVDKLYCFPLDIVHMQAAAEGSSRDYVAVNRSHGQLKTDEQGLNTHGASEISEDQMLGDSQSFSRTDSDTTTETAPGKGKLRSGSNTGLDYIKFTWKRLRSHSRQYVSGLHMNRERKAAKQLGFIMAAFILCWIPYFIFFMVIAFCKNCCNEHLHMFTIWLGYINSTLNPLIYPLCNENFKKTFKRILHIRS

Take `CS(=O)(=O)NCCOCCOCCN1CCN(c2nc(N)nc3c2CCc2cc(OCc4ccccc4)ccc2-3)CC1` [Example 110, N-(2-(2-(2-(4-(2-amino-8-(benzyloxy)-5,6-dihydrobenzo[h]quinazolin-4-yl)piperazin-1-yl)ethoxy)ethoxy)ethyl)methanesulfonamide dihydrochloride]: the Ki in experiment [1] and in experiment [2] was below 100 nM throughout.
On to `Nc1nc2c(c(N3CCN(CCOCCOCCN4C(=O)c5ccccc5C4=O)CC3)n1)CCc1cc(OCc3ccc(Cl)cc3)ccc1-2` [Example 112, 2-(2-(2-(2-(4-(2-amino-8-((4-chlorobenzyl)oxy)-5,6-dihydrobenzo[h]quinazolin-4-yl)piperazin-1-yl)ethoxy)ethoxy)ethyl)isoindoline-1,3-dione], for which the Ki in experiment [1] was 100 to 500 nM; in experiment [2] it was below 100 nM.
Turning to `COC(=O)COCCN1CCN(c2nc(N)nc3c2CCc2cc(OCc4ccc(Cl)cc4)ccc2-3)CC1` [Example 113, methyl 2-(2-(4-(2-amino-8-((4-chlorobenzyl)oxy)-5,6-dihydrobenzo[h]quinazolin-4-yl)piperazin-1-yl)ethoxy)acetate], the Ki in experiment [1] and in experiment [2] was below 100 nM throughout.
In the case of `CCS(=O)(=O)CCCN1CCN(c2nc(N)nc3c2CCc2cc(OCc4ccc(Cl)cc4)ccc2-3)CC1` [Example 114, 8-((4-chlorobenzyl)oxy)-4-(4-(3-(ethylsulfonyl)propyl)piperazin-1-yl)-5,6-dihydrobenzo[h]quinazolin-2-amine], the Ki in experiment [1] was 100 to 500 nM; in experiment [2], below 100 nM.
On to `Nc1nc2c(c(N3CCN(CCOCCOc4nnn[nH]4)CC3)n1)CCc1cc(OCc3ccc(Cl)cc3)ccc1-2` [Example 115, 4-(4-(2-(2-((tetrazol-5-yl)oxy)ethoxy)ethyl)piperazin-1-yl)-8-((4-chlorobenzyl)oxy)-5,6-dihydrobenzo[h]quinazolin-2-amine dihydrochloride], for which the values for the Ki in experiment [1] and in experiment [2] were 100 to 500 nM and below 100 nM, respectively.
Regarding `Nc1nc2c(c(N3CCN(CCOCc4cc(OCc5ccccc5)no4)CC3)n1)CCc1cc(OCc3ccc(Cl)cc3)ccc1-2` [Example 116, 4-(4-(2-((3-(benzyloxy)isoxazol-5-yl)methoxy)ethyl)piperazin-1-yl)-8-((4-chlorobenzyl)oxy)-5,6-dihydrobenzo[h]quinazolin-2-amine], the Ki was 100 to 500 nM in experiment [1] and below 100 nM in experiment [2].
Turning to `COC(=O)C1CN(C(=O)CCCN2CCN(c3nc(N)nc4c3CCc3cc(OCc5ccc(Cl)cc5)ccc3-4)CC2)C1` [Example 117, methyl 1-(4-(4-(2-amino-8-((4-chlorobenzyl)oxy)-5,6-dihydrobenzo[h]quinazolin-4-yl)piperazin-1-yl)butanoyl)azetidine-3-carboxylate], the Ki is below 100 nM in experiment [1] and 100 to 500 nM in experiment [2].
Take `NCCOCCOCCN1CCN(c2nc(N)nc3c2CCc2cc(OCc4ccc(Cl)cc4)ccc2-3)CC1` [Example 118, 4-(4-(2-(2-(2-aminoethoxy)ethoxy)ethyl)piperazin-1-yl)-8-((4-chlorobenzyl)oxy)-5,6-dihydrobenzo[h]quinazolin-2-amine]: the Ki in experiment [1] and in experiment [2] was below 100 nM each time.
As to `Nc1nc2c(c(N3CCN(CCOCCOCC(=O)O)CC3)n1)CCc1cc(OCc3ccccc3)ccc1-2` [Example 119, 2-(2-(2-(4-(2-amino-8-(benzyloxy)-5,6-dihydrobenzo[h]quinazolin-4-yl)piperazin-1-yl)ethoxy)ethoxy)acetic acid bis(trifluoroacetate)], the Ki in experiment [1] is 100 to 500 nM; in experiment [2], below 100 nM.
Regarding `Nc1nc2c(c(N3CCN(CCCCCOCC(=O)O)CC3)n1)CCc1cc(OCc3ccccc3)ccc1-2` [Example 120, 2-((5-(4-(2-amino-8-(benzyloxy)-5,6-dihydrobenzo[h]quinazolin-4-yl)piperazin-1-yl)pentyl)oxy)acetic acid], the Ki in experiment [1] and in experiment [2] was below 100 nM throughout.
As to `CC(OCCOCCN1CCN(c2nc(N)nc3c2CCc2cc(OCc4ccc(Cl)cc4)ccc2-3)CC1)C(=O)O` (stereo not drawn) [Example 121, 2-(2-(2-(4-(2-amino-8-((4-chlorobenzyl)oxy)-5,6-dihydrobenzo[h]quinazolin-4-yl)piperazin-1-yl)ethoxy)ethoxy)propanoic acid dihydrochloride], the figures for the Ki in experiment [1] and in experiment [2] were 100 to 500 nM and below 100 nM, respectively.
Take `CC(OCCCCN1CCN(c2nc(N)nc3c2CCc2cc(OCc4ccc(Cl)cc4)ccc2-3)CC1)C(=O)O` (stereo not drawn) [Example 123, 2-(4-(4-(2-amino-8-((4-chlorobenzyl)oxy)-5,6-dihydrobenzo[h]quinazolin-4-yl)piperazin-1-yl)butoxy)propanoic acid]: the Ki in experiment [1] was 100 to 500 nM; in experiment [2] it was below 100 nM.
Consider `Nc1nc2c(c(N3CCN(CCOCCOCC(=O)O)CC3)n1)CCc1cc(OCc3ccc(F)cc3)ccc1-2` [Example 124, 2-(2-(2-(4-(2-amino-8-((4-fluorobenzyl)oxy)-5,6-dihydrobenzo[h]quinazolin-4-yl)piperazin-1-yl)ethoxy)ethoxy)acetic acid], for which the Ki in experiment [1] and in experiment [2] was below 100 nM throughout.
Regarding `Nc1nc2c(c(N3CCN(CC(=O)NCCCC(=O)O)CC3)n1)CCc1cc(OCc3ccc(Cl)cc3)ccc1-2` [Example 125, 4-(2-(4-(2-amino-8-((4-chlorobenzyl)oxy)-5,6-dihydrobenzo[h]quinazolin-4-yl)piperazin-1-yl)acetamido)butanoic acid dihydrochloride], the values for the Ki in experiment [1] and in experiment [2] were 100 to 500 nM and below 100 nM, respectively.
Consider `CCC(OCCOCCN1CCN(c2nc(N)nc3c2CCc2cc(OCc4ccc(Cl)cc4)ccc2-3)CC1)C(=O)O` (stereo not drawn) [Example 126, 2-(2-(2-(4-(2-amino-8-((4-chlorobenzyl)oxy)-5,6-dihydrobenzo[h]quinazolin-4-yl)piperazin-1-yl)ethoxy)ethoxy)butanoic acid], for which the Ki in experiment [1] and in experiment [2] was below 100 nM in each case.
Turning to `Nc1nc2c(c(N3CCN(CCOc4cccc(CC(=O)O)c4)CC3)n1)CCc1cc(OCc3ccc(Cl)cc3)ccc1-2` [Example 130, 2-(3-(2-(4-(2-amino-8-((4-chlorobenzyl)oxy)-5,6-dihydrobenzo[h]quinazolin-4-yl)piperazin-1-yl)ethoxy)phenyl)acetic acid], the Ki in experiment [1] was 100 to 500 nM; in experiment [2], below 100 nM.
In the case of `Nc1nc2c(c(N3CCN(CCCCn4cc(C(=O)O)cn4)CC3)n1)CCc1cc(OCc3ccc(Cl)cc3)ccc1-2` [Example 132, 1-(4-(4-(2-amino-8-((4-chlorobenzyl)oxy)-5,6-dihydrobenzo[h]quinazolin-4-yl)piperazin-1-yl)butyl)-1H-pyrazole-4-carboxylic acid dihydrochloride], the Ki is 100 to 500 nM in experiment [1] and below 100 nM in experiment [2].
Regarding `Nc1nc2c(c(N3CCN(CCOCCn4cc(C(=O)O)cn4)CC3)n1)CCc1cc(OCc3ccc(Cl)cc3)ccc1-2` [Example 133, 1-(2-(2-(4-(2-amino-8-((4-chlorobenzyl)oxy)-5,6-dihydrobenzo[h]quinazolin-4-yl)piperazin-1-yl)ethoxy)ethyl)-1H-pyrazole-4-carboxylic acid dihydrochloride], the Ki in experiment [1] and in experiment [2] was below 100 nM throughout.
As for `Nc1nc2c(c(N3CCN(CCCCOc4ccc(C(=O)O)cc4)CC3)n1)CCc1cc(OCc3ccc(Cl)cc3)ccc1-2` [Example 134, 4-(4-(4-(2-amino-8-((4-chlorobenzyl)oxy)-5,6-dihydrobenzo[h]quinazolin-4-yl)piperazin-1-yl)butoxy)benzoic acid hydrochloride], the values for the Ki in experiment [1] and in experiment [2] were 100 to 500 nM and below 100 nM, respectively.
Turning to `Nc1nc2c(c(N3CCN(CCOc4ccccc4CC(=O)O)CC3)n1)CCc1cc(OCc3ccc(Cl)cc3)ccc1-2` [Example 136, 2-(2-(2-(4-(2-amino-8-((4-chlorobenzyl)oxy)-5,6-dihydrobenzo[h]quinazolin-4-yl)piperazin-1-yl)ethoxy)phenyl)acetic acid dihydrochloride], the Ki in experiment [1] was 100 to 500 nM; in experiment [2], below 100 nM.
With `Nc1nc2c(c(N3CCN(CCOc4ccc(CC(=O)O)cc4)CC3)n1)CCc1cc(OCc3ccc(Cl)cc3)ccc1-2` [Example 137, 2-(4-(2-(4-(2-amino-8-((4-chlorobenzyl)oxy)-5,6-dihydrobenzo[h]quinazolin-4-yl)piperazin-1-yl)ethoxy)phenyl)acetic acid dihydrochloride], the Ki in experiment [1] and in experiment [2] was below 100 nM each time.
With `Nc1nc2c(c(N3CCN(CCOCCn4ccc(C(=O)O)n4)CC3)n1)CCc1cc(OCc3ccc(Cl)cc3)ccc1-2` [Example 138, 1-(2-(2-(4-(2-amino-8-((4-chlorobenzyl)oxy)-5,6-dihydrobenzo[h]quinazolin-4-yl)piperazin-1-yl)ethoxy)ethyl)-1H-pyrazole-3-carboxylic acid dihydrochloride], the Ki in experiment [1] is 100 to 500 nM; in experiment [2] it was below 100 nM.
Turning to `Nc1nc2c(c(N3CCN(CCc4cccc(OCC(=O)O)c4)CC3)n1)CCc1cc(OCc3ccc(Cl)cc3)ccc1-2` [Example 139, 2-(3-(2-(4-(2-amino-8-((4-chlorobenzyl)oxy)-5,6-dihydrobenzo[h]quinazolin-4-yl)piperazin-1-yl)ethyl)phenoxy)acetic acid dihydrochloride], the Ki in experiment [1] was 100 to 500 nM; in experiment [2], below 100 nM.
As to `Nc1nc2c(c(N3CCN(CCc4ccc(OCC(=O)O)cc4)CC3)n1)CCc1cc(OCc3ccc(Cl)cc3)ccc1-2` [Example 140, 2-(4-(2-(4-(2-amino-8-((4-chlorobenzyl)oxy)-5,6-dihydrobenzo[h]quinazolin-4-yl)piperazin-1-yl)ethyl)phenoxy)acetic acid dihydrochloride], the Ki in experiment [1] is 100 to 500 nM; in experiment [2], below 100 nM.

For the origin of these results see patent publication US20190047966A1, “NOVEL COMPOUND AND PHARMACOLOGICALLY ACCEPTABLE SALT THEREOF” (MEIJI SEIKA PHARMA CO., LTD., priority 2016, published 2019).
